In ChEMBL document CHEMBL1145705, “Flavonoids as inhibitors or enhancers of the cytotoxicity of tumor necrosis factor-alpha in L-929 tumor cells” (J Nat Prod, 1997):
Activity calls are given as the source filed them. No cut-off for these calls is given here.

What was measured:
L929 [1] = experiment: Potentiation of recombinant human TNF-alpha-induced cytotoxicity of mouse L929 cells assessed as survivality preincubated for 15 mins before TNFalpha addition measured after 24 hrs by crystal violet staining; format: functional, cell-based
L929 [2] = experiment: Potentiation of recombinant human TNF-alpha-induced cytotoxicity of mouse L929 cells assessed as survivality preincubated for 15 mins before TNFalpha addition measured after 24 hrs by [methyl-3H]thymidine incorporation assay; format: functional, cell-based
L929 [3] = experiment: Inhibition of recombinant human TNF-alpha-induced cytotoxicity of mouse L929 cells assessed as survivality preincubated for 15 mins before TNFalpha addition measured after 24 hrs by [methyl-3H]thymidine incorporation assay; format: functional, cell-based
L929 [4] = experiment: Inhibition of recombinant human TNF-alpha-induced cytotoxicity of mouse L929 cells assessed as survivality preincubated for 15 mins before TNFalpha addition measured after 24 hrs by crystal violet staining; format: functional, cell-based
L929 [5] = experiment: Potentiation of recombinant human TNF-alpha-induced cytotoxicity of mouse L929 cells assessed as survivality treated with drug after 2 hrs of TNFalpha treatment; format: functional, cell-based
L929 [6] = experiment: Inhibition of recombinant human TNF-alpha-induced cytotoxicity of mouse L929 cells assessed as survivality treated with drug after 2 hrs of TNFalpha treatment; format: functional, cell-based
L929 [7] = experiment: Potentiation of recombinant human TNF-alpha-induced cytotoxicity of mouse L929 cells assessed as survivality at 250 uM preincubated for 15 mins before TNFalpha addition measured after 24 hrs by [methyl-3H]thymidine incorporation assay; format: functional
L929 [8] = experiment: Potentiation of recombinant human TNF-alpha-induced cytotoxicity of mouse L929 cells assessed as survivality at 250 uM preincubated for 15 mins before TNFalpha addition measured after 24 hrs by crystal violet staining; format: functional
L929 [9] = experiment: Cytotoxicity against mouse L929 cells at 1 uM preincubated for 15 mins before TNFalpha addition measured after 24 hrs by [methyl-3H]thymidine incorporation assay; format: cell-based; settings: l929, 24 h
L929 [10] = experiment: Cytotoxicity against mouse L929 cells at 1 uM preincubated for 15 mins before TNFalpha addition measured after 24 hrs by crystal violet staining; format: cell-based; settings: l929, 24 h

O=c1cc(-c2ccc(O)cc2)oc2cc(O)cc(O)c12
Activity (L929 [1]): Active | Activity (L929 [2]): Active

O=c1cc(-c2ccccc2)oc2cc(O)cc(O)c12
Activity (L929 [1]): Active | Activity (L929 [2]): Active

O=C1c2c(O)cc(O)cc2O[C@H](c2ccc(O)c(O)c2)[C@H]1O [(+)-TAXIFOLIN]
EC50 (L929 [3]): 240 µM | EC50 (L929 [4]): 200 µM

Oc1cc(O)c2c(c1)O[C@H](c1ccc(O)c(O)c1)[C@H](O)C2 [(-)-EPICATECHIN]
EC50 (L929 [3]): 350 µM | EC50 (L929 [4]): 300 µM

O=C1C[C@@H](c2ccc(O)c(O)c2)Oc2cc(O)cc(O)c21 [ERIODICTYOL]
EC50 (L929 [3]): 6 µM | EC50 (L929 [4]): 4 µM

O=c1c(O)c(-c2ccccc2)oc2cc(O)cc(O)c12 [GALANGIN]
EC50 (L929 [3]): 50 µM | Activity (L929 [5]): Active | Activity (L929 [4]): Dose-dependent effect | EC50 (L929 [4]): 40 µM | Activity (L929 [6]): Active

COc1ccc(-c2oc3cc(O)cc(O)c3c(=O)c2O)cc1 [KAEMPFERIDE]
EC50 (L929 [3]): 140 µM | Activity (L929 [5]): Active | Activity (L929 [4]): Dose-dependent effect | EC50 (L929 [4]): 129 µM | Activity (L929 [6]): Active

O=c1c(O)c(-c2ccc(O)cc2)oc2cc(O)cc(O)c12 [KAEMPFEROL]
EC50 (L929 [3]): 25 µM | Activity (L929 [5]): Active | Activity (L929 [4]): Dose-dependent effect | EC50 (L929 [4]): 20 µM | Activity (L929 [6]): Active

O=c1cc(-c2ccc(O)c(O)c2)oc2cc(O)cc(O)c12 [LUTEOLIN]
EC50 (L929 [3]): > 250 µM | EC50 (L929 [4]): > 250 µM

O=c1c(O)c(-c2ccc(O)cc2O)oc2cc(O)cc(O)c12 [MORIN]
EC50 (L929 [3]): 115 µM | Activity (L929 [5]): Active | Activity (L929 [4]): Dose-dependent effect | EC50 (L929 [4]): 120 µM | Activity (L929 [6]): Active

O=c1c(O)c(-c2cc(O)c(O)c(O)c2)oc2cc(O)cc(O)c12 [MYRICETIN]
EC50 (L929 [3]): 59 µM | Activity (L929 [5]): Active | Activity (L929 [4]): Dose-dependent effect | EC50 (L929 [4]): 55 µM | Activity (L929 [6]): Active

O=C1C[C@@H](c2ccc(O)cc2)Oc2cc(O)cc(O)c21 [NARINGENIN]
Activity (L929 [7]): 31% | Activity (L929 [1]): Active | Activity (L929 [8]): 25% | Activity (L929 [2]): Active

CC(Cc1ccc(O)c(O)c1)C(C)Cc1ccc(O)c(O)c1 (configuration not stated) [NORDIHYDROGUAIARETIC ACID]
EC50 (L929 [3]): 19 µM | EC50 (L929 [4]): 28 µM

O=c1c(O)c(-c2ccc(O)c(O)c2)oc2cc(O)cc(O)c12 [QUERCETIN]
EC50 (L929 [3]): 26 µM | Activity (L929 [5]): Active | Activity (L929 [4]): Dose-dependent effect | EC50 (L929 [4]): 20 µM | Activity (L929 [6]): Active

C[C@@H]1O[C@@H](OC[C@H]2O[C@@H](Oc3c(-c4ccc(O)c(O)c4)oc4cc(O)cc(O)c4c3=O)[C@H](O)[C@@H](O)[C@@H]2O)[C@H](O)[C@H](O)[C@H]1O [RUTIN]
EC50 (L929 [3]): > 250 µM | Activity (L929 [5]): Active | Activity (L929 [4]): Dose-dependent effect | EC50 (L929 [4]): 250 µM | Activity (L929 [6]): Active

CN[C@@H]1C[C@H]2O[C@@](C)([C@@H]1OC)n1c3ccccc3c3c4c(c5c6ccccc6n2c5c31)C(=O)NC4 [STAUROSPORINE]
Activity (L929 [9]): Toxic | Activity (L929 [1]): Dose-dependent effect | Activity (L929 [10]): Toxic | Activity (L929 [2]): Dose-dependent effect
